Reference: patent US20260258010A1, “THIOPHENE-2-CARBOXYLIC ACID DERIVATIVE, AND PREPARATION METHOD THEREFOR AND MEDICAL USE THEREOF” (CHINA PHARMACEUTICAL UNIVERSITY, priority 2023, published 2026)

What follows are compounds tested against T1, P2Y14 receptor (Homo sapiens, UniProt Q15391) (assay: cAMP inhibition assay in HEK293 cells stably transfected with the P2Y14 receptor (UDPG-stimulated, cAMP Glo)). Details: 100 nM compound; HEK293 stably transfected with P2Y14 receptor; 30 μM Forskolin, 1 μM UDPG, 4 h; inhibition rate from cAMP content; read-out: Inhibition @ 100 nM.
T1 construct: expressed in transfected cells; host or cells: HEK293
T1 sequence (Q15391 1-338): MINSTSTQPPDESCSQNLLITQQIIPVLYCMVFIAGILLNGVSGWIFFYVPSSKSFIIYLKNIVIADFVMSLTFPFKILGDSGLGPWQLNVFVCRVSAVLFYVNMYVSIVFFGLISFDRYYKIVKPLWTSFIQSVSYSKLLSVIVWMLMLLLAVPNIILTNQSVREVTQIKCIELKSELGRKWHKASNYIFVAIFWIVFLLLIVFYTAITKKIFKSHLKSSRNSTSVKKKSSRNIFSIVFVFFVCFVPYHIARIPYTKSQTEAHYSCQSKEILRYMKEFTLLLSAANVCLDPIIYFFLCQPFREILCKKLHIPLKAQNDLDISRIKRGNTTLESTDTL
Assay type: cell-based
Procedure: An HEK293 cell strain stably transfected with the P2Y14 receptor was cultured in a DMEM culture medium (containing […], 100 U/mL penicillin, and 100 μg/mL streptomycin). Before the experiment, the cells were seeded into a culture plate at a density of 1×10^5 cells/well, and a serum-free culture medium was used instead. The cells were cultured at 37° C. with […] and 5% CO2 humidity. IBMX was added to inhibit the activity of PDEs, thereby ensuring a relatively high level of cAMP. The AC agonist Forskolin (30 μM) was adopted to stimulate the production of cellular cAMP. Test compounds at different concentrations (0.01 nm, 0.1 nm, 1 nm, 10 nm, and 100 nm) were added in advance, and PPTN was used as a positive control. Subsequently, 1 μM P2Y14 receptor agonist UDPG was added, and after 4 h, the content of intracellular cAMP was measured using a cAMP Glo™ Assay kit (PROMEGA Co. Ltd., USA). The inhibition rate was calculated based on the cAMP content.

inhibition at 0.1 µM	Compound
46.8%	Cc1ccc(Oc2sc(C(=O)O)cc2NC(=O)c2ccc(N(C)C)cc2)cn1 [Compound 18-4]
36.2%	Cc1ccc(C(=O)Nc2cc(C(=O)O)sc2Oc2cccc(Cl)c2)cc1 [Compound 3-5]
55.8%	Cc1ccc(C(=O)Nc2cc(C(=O)O)sc2Oc2cccc(C)c2)cc1 [Compound 3-16]
61.4%	Cc1ccc(C(=O)Nc2cc(C(=O)O)sc2Sc2ccc(F)cc2)cc1 [Compound 12-2]
75.5%	Cc1ccc(C(=O)Nc2cc(C(=O)O)sc2Oc2ccc(F)cn2)cc1 [Compound 6-5]
46.4%	CCc1ccc(C(=O)Nc2cc(C(=O)O)sc2Oc2ccc(C)nc2)cc1 [Compound 15-3]
45.1%	Cc1ccc(C(=O)Nc2cc(C(=O)O)sc2Oc2ccc(C)nc2)nc1 [Compound 18-1]
54.3%	Cc1ccc(C(=O)Nc2cc(C(=O)O)sc2Oc2ccc(C(C)C)cc2)cc1 [Compound 3-21]
32.7%	Cc1ccc(C(=O)Nc2cc(C(=O)O)sc2Oc2ccc(OC(F)(F)F)cc2)cc1 [Compound 3-10]
66%	Cc1ccc(C(=O)Nc2cc(C(=O)O)sc2Oc2ccccc2F)cc1 [Compound 3-3]
86.1%	Cc1ccc(Oc2sc(C(=O)O)cc2NC(=O)c2ccc(C(C)(C)C)cc2)cn1 [Compound 15-6]
74.9%	Cc1ccc(C(=O)Nc2cc(C(=O)O)sc2Oc2ccccn2)cc1 [Compound 6-3]
34.5%	CC(=O)c1ccc(Oc2sc(C(=O)O)cc2NC(=O)c2ccc(C)cc2)cc1 [Compound 3-11]
57.5%	Cc1ccc(C(=O)Nc2cc(C(=O)O)sc2Sc2ccccc2)cc1 [Compound 12-1]
57.1%	Cc1ccc(C(=O)Nc2cc(C(=O)O)sc2Oc2ccccc2C(F)(F)F)cc1 [Compound 3-9]
52.8%	Cc1ccc(C(=O)Nc2cc(C(=O)O)sc2Oc2cccc(C(F)(F)F)c2)cc1 [Compound 3-8]
88.4%	Cc1ccc(Oc2sc(C(=O)O)cc2NC(=O)c2ccc(C)cc2)cc1 [Compound 3-15]
44.1%	Cc1ccc(C(=O)Nc2cc(C(=O)O)sc2Oc2ccccc2)cc1 [Compound 3-1]
75.6%	Cc1ccc(C(=O)Nc2cc(C(=O)O)sc2Oc2ccc(C(=O)NCC3CS(=O)(=O)C3)cc2)cc1 [Compound 3-24]
55.7%	Cc1ccc(C(=O)Nc2cc(C(=O)O)sc2Nc2ccc(F)cc2)cc1 [Compound 9-2]

inhibition at 0.1 µM	Compound
45.8%	Cc1ccc(Oc2sc(C(=O)O)cc2NC(=O)c2cnn(C)c2)cn1 [Compound 18-5]
65.1%	Cc1ccc(Oc2sc(C(=O)O)cc2NC(=O)c2ccc(C)nc2)cn1 [Compound 17, 4-(6-methylnicotinamido)-5-((6-methylpyridin-3-yl)oxy)thiophene-2-carboxylic acid]
82.5%	Cc1ccc(C(=O)Nc2cc(C(=O)O)sc2Sc2ccc(C(F)(F)F)cc2)cc1 [Compound 12-4]
85.6%	CCCc1ccc(C(=O)Nc2cc(C(=O)O)sc2Oc2ccc(C)nc2)cc1 [Compound 15-4]
46.2%	Cc1ccc(C(=O)Nc2cc(C(=O)O)sc2Oc2ccc(C#N)cc2)cc1 [Compound 3-13]
49.5%	Cc1ccc(C(=O)Nc2cc(C(=O)O)sc2Oc2ccc(C(=O)NCCC3CCOCC3)cc2)cc1 [Compound 3-25]
67.4%	CCc1ccc(Oc2sc(C(=O)O)cc2NC(=O)c2ccc(C)cc2)cc1 [Compound 3-19]
78.7%	Cc1ccc(Oc2sc(C(=O)O)cc2NC(=O)c2ccc(C(C)C)cc2)cn1 [Compound 15-5]
34.6%	Cc1ccc(C(=O)Nc2cc(C(=O)O)sc2Oc2ccc(C(C)(C)C)cc2)cc1 [Compound 3-22]
56.2%	Cc1ccc(Oc2sc(C(=O)O)cc2NC(=O)c2cnc(C)nc2)cn1 [Compound 18-3]
30.9%	Cc1ccc(C(=O)Nc2cc(C(=O)O)sc2Oc2ccc(Cl)cc2)cc1 [Compound 3-4]
69.6%	Cc1ccc(C(=O)Nc2cc(C(=O)O)sc2Oc2cccc(F)c2)cc1 [Compound 3-2]
82.1%	Cc1ccc(Oc2sc(C(=O)O)cc2NC(=O)c2ccc(C(F)(F)F)cc2)cn1 [Compound 15-9]
45.8%	Cc1ccc(C(=O)Nc2cc(C(=O)O)sc2Oc2ccccc2C)cc1 [Compound 3-17]
67.5%	CCc1ccc(Sc2sc(C(=O)O)cc2NC(=O)c2ccc(C)cc2)cc1 [Compound 12-3]
59.8%	Cc1ccc(C(=O)Nc2cc(C(=O)O)sc2Nc2ccc(C(C)C)cc2)cc1 [Compound 9-4]
48.2%	Cc1ccc(Oc2sc(C(=O)O)cc2NC(=O)c2cnc(C)cn2)cn1 [Compound 18-2]
66.3%	CCCc1ccc(Oc2sc(C(=O)O)cc2NC(=O)c2ccc(C)cc2)cc1 [Compound 3-20]
75.6%	Cc1ccc(Nc2sc(C(=O)O)cc2NC(=O)c2ccc(C)cc2)cc1 [Compound 8, 4-(4-methylbenzamido)-5-(p-tolylamino)thiophene-2-carboxylic acid]
88.4%	Cc1ccc(C(=O)Nc2cc(C(=O)O)sc2Oc2ccc(F)nc2)cc1 [Compound 6-2]

inhibition at 0.1 µM	Compound
75.4%	Cc1ccc(Oc2sc(C(=O)O)cc2NC(=O)c2ccc(Cl)cc2)cn1 [Compound 15-2]
82.3%	Cc1ccc(C(=O)Nc2cc(C(=O)O)sc2Nc2ccccc2)cc1 [Compound 9-1]
76.4%	Cc1ccc(Oc2sc(C(=O)O)cc2NC(=O)c2ccc(C#N)cc2)cn1 [Compound 15-8]
86.9%	Cc1ccc(Oc2sc(C(=O)O)cc2NC(=O)c2ccccc2)cn1 [Compound 14, 5-((6-methylpyridin-3-yl)oxy)-4-(benzamido)thiophene-2-carboxylic acid]
81.1%	CC(=O)Nc1ccc(Oc2sc(C(=O)O)cc2NC(=O)c2ccc(C)cc2)cc1 [Compound 3-23]
44.1%	Cc1ccc(C(=O)Nc2cc(C(=O)O)sc2Oc2ccc(C(=O)O)cc2)cc1 [Compound 3-12]
75.6%	Cc1ccc(Sc2sc(C(=O)O)cc2NC(=O)c2ccc(C)cc2)cc1 [Compound 11, 4-(4-methylbenzamido)-5-(p-tolylthio)thiophene-2-carboxylic acid]
94.6%	C#Cc1ccc(C(=O)Nc2cc(C(=O)O)sc2Oc2ccc(C)nc2)cc1 [Compound 15-7]
62.6%	Cc1ccc(C(=O)Nc2cc(C(=O)O)sc2Oc2ccc(C(F)(F)F)cc2)cc1 [Compound 3-7]
75.7%	Cc1ccc(Oc2sc(C(=O)O)cc2NC(=O)c2ccc(F)cc2)cn1 [Compound 15-1]
91.3%	COc1ccc(C(=O)Nc2cc(C(=O)O)sc2Oc2ccc(C)nc2)cc1 [Compound 15-10]
79.3%	Cc1ccc(Oc2sc(C(=O)O)cc2NC(=O)c2ccc(C(=O)O)cc2)cn1 [Compound 15-11]
70.4%	Cc1ccc(C(=O)Nc2cc(C(=O)O)sc2Oc2ccc(F)cc2)cc1 [Compound 2, 5-(4-fluorophenoxy)-4-(4-methylbenzamido)thiophene-2-carboxylic acid]
40.4%	Cc1ccc(C(=O)Nc2cc(C(=O)O)sc2Oc2ccccc2Cl)cc1 [Compound 3-6]
62.8%	Cc1ccc(C(=O)Nc2cc(C(=O)O)sc2Oc2ccc(S(C)(=O)=O)cc2)cc1 [Compound 3-14]
62%	Cc1ccc(C(=O)Nc2cc(C(=O)O)sc2Oc2cccnc2)cc1 [Compound 6-1]
43.5%	Cc1ccc(C(=O)Nc2cc(C(=O)O)sc2Oc2ccncc2)cc1 [Compound 6-6]
69.8%	COc1ccc(Oc2sc(C(=O)O)cc2NC(=O)c2ccc(C)cc2)cc1 [Compound 3-18]
71.5%	CCc1ccc(Nc2sc(C(=O)O)cc2NC(=O)c2ccc(C)cc2)cc1 [Compound 9-3]
60.3%	Cc1ccc(C(=O)Nc2cc(C(=O)O)sc2Oc2ccsn2)cc1 [Compound 6-7]

Same assay, conditions: HEK293, read-out: Inhibition @ 100 nM

inhibition at 0.1 µM	Compound
81.3%	Cc1ccc(C(=O)Nc2cc(C(=O)O)sc2Oc2ccc(C)cn2)cc1 [Compound 6-4]
